What all share (test): biochemical
Design in all cases: KINOMEscan active site-directed competition binding assay (DiscoveRx), 456 kinases, per cent of control at 300 nM
Conditions in all cases: read-out: Percent of Control (%)

In one assay the target is EPHA4 (Homo sapiens, UniProt P54764). In a few lines: (§1)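 Active site-directed competition binding (KINOMEscan) across a 456-kinase panel, compounds tested at 300 nmol/L.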
In a further assay the target is BRSK2 (Homo sapiens, UniProt Q8IWQ3). The procedure, abridged: as §1
Assay [1] addresses T1, RPS6KA5(Kin.Dom.2-C-terminal) (Homo sapiens, UniProt O75582).
T1 construct: Kin.Dom.2-C-terminal
In a few lines:
as §1

Another assay deals with MKNK1 (Homo sapiens, UniProt Q9BUB5). In a few lines:
as §1

Assay [2] deals with T2, ABL1(E255K)-phosphorylated (Homo sapiens, UniProt P00519, E255K).
T2 construct: phosphorylated
The procedure, abridged:
as §1

The target in the next assay is T3, MKK7 (Homo sapiens, UniProt O14733).
T3 construct: gene MAP2K7
In a few lines: as §1

For the next assay, the target named is FGFR3(G697C) (Homo sapiens, UniProt P22607, G697C). The procedure, abridged: as §1
The target of a further assay is T4, LKB1 (Homo sapiens, UniProt Q15831).
T4 construct: gene STK11
The procedure, abridged: as §1

In a further assay the target is PDGFRB (Homo sapiens, UniProt P09619). In a few lines: as §1
Another assay concerns the target T5, p38-gamma (Homo sapiens, UniProt P53778).
T5 construct: gene MAPK12
The procedure, abridged: as §1

The target of another assay is PIK3CA(I800L) (Homo sapiens, UniProt P42336, I800L). The procedure, abridged: as §1
A further assay has as its target T6, PAK7 (Homo sapiens, UniProt Q9P286).
T6 construct: gene PAK5
The procedure, abridged: as §1

The target of another assay is PRKCE (Homo sapiens, UniProt Q02156). In a few lines: as §1
The target of a further assay is EPHB6 (Homo sapiens, UniProt O15197). The procedure, abridged:
as §1

For the next assay, the target named is NEK5 (Homo sapiens, UniProt Q6P3R8). The procedure, abridged:
as §1

Another assay addresses CSNK1G1 (Homo sapiens, UniProt Q9HCP0). In a few lines:
as §1

The next assay deals with RIPK4 (Homo sapiens, UniProt P57078). In a few lines: as §1
The target in the next assay is HIPK4 (Homo sapiens, UniProt Q8NE63). The procedure, abridged:
as §1

Another assay has as its target BRAF (Homo sapiens, UniProt P15056). The procedure, abridged: as §1
In assay [3] the target is T7, ABL1(H396P)-nonphosphorylated (Homo sapiens, UniProt P00519, H396P).
T7 construct: nonphosphorylated
In a few lines: as §1

The next assay deals with ERBB4 (Homo sapiens, UniProt Q15303). The procedure, abridged: as §1

Read-outs that look alike come from different tables or passages of the source.

EPHA4, sequence (P54764 whole entry): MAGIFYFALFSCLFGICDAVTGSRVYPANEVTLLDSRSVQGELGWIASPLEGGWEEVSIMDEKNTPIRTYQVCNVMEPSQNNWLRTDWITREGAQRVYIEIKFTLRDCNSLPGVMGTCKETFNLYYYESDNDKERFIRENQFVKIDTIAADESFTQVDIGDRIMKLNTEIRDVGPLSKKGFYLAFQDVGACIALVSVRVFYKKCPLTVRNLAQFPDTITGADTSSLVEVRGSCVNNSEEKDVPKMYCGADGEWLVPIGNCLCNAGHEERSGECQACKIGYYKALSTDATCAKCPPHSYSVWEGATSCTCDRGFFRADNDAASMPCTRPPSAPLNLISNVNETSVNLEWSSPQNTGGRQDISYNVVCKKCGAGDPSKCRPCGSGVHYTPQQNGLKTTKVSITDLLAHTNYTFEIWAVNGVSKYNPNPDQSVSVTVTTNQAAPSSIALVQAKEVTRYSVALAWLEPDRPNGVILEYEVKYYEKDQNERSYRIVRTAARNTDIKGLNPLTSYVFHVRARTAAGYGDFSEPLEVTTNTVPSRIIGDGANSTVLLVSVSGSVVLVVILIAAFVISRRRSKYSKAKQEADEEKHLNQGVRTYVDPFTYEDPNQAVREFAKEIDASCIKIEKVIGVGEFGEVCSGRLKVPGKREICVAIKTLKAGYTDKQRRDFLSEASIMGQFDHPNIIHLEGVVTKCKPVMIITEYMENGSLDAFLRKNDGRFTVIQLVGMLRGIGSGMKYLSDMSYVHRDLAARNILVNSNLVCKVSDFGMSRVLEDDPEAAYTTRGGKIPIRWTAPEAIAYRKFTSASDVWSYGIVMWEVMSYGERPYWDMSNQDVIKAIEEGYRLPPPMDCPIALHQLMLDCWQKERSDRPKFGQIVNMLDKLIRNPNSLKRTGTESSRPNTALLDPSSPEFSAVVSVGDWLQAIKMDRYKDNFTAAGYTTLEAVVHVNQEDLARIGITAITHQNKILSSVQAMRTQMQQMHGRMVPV
FGFR3(G697C), sequence (P22607 whole entry G697C): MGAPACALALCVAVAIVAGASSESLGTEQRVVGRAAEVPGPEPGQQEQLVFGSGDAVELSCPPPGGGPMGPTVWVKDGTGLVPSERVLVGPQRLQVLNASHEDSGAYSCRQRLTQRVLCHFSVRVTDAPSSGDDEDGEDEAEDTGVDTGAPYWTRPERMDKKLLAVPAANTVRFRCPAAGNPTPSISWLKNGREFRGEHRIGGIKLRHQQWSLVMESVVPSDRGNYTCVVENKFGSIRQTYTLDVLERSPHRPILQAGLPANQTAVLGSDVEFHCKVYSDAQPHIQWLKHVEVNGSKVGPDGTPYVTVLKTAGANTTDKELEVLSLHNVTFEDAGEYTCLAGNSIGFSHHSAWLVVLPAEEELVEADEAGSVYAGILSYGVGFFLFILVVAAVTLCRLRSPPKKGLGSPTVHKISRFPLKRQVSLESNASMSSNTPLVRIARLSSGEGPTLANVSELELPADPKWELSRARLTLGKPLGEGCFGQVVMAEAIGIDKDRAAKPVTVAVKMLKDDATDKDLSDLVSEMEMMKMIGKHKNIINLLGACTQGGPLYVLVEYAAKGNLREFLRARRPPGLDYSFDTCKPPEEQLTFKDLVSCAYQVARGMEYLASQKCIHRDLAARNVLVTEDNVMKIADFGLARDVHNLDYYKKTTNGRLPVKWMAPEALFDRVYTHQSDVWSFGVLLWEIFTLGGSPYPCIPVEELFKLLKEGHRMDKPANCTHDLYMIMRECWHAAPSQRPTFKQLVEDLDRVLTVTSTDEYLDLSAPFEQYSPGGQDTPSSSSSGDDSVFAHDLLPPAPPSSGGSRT
BRSK2, sequence (Q8IWQ3 whole entry): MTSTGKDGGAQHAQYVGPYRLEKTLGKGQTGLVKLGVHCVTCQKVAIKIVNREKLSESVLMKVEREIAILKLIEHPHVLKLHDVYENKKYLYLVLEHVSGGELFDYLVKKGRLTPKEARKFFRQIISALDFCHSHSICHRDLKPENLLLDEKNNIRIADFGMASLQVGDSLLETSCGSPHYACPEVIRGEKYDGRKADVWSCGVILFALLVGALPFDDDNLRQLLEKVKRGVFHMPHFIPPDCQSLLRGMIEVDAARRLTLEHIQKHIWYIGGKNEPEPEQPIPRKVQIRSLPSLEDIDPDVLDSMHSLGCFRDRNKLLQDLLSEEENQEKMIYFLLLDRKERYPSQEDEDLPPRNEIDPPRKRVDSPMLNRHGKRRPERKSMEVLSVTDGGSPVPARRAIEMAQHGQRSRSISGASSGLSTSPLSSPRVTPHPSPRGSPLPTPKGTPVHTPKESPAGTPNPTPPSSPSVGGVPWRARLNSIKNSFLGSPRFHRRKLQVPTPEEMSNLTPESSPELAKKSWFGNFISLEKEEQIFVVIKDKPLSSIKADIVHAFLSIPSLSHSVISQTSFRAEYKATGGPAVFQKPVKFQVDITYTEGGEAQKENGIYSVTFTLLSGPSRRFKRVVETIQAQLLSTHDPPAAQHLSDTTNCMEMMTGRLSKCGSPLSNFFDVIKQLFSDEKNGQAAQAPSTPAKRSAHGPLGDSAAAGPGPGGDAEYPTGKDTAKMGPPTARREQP
PRKCE, sequence (Q02156 whole entry): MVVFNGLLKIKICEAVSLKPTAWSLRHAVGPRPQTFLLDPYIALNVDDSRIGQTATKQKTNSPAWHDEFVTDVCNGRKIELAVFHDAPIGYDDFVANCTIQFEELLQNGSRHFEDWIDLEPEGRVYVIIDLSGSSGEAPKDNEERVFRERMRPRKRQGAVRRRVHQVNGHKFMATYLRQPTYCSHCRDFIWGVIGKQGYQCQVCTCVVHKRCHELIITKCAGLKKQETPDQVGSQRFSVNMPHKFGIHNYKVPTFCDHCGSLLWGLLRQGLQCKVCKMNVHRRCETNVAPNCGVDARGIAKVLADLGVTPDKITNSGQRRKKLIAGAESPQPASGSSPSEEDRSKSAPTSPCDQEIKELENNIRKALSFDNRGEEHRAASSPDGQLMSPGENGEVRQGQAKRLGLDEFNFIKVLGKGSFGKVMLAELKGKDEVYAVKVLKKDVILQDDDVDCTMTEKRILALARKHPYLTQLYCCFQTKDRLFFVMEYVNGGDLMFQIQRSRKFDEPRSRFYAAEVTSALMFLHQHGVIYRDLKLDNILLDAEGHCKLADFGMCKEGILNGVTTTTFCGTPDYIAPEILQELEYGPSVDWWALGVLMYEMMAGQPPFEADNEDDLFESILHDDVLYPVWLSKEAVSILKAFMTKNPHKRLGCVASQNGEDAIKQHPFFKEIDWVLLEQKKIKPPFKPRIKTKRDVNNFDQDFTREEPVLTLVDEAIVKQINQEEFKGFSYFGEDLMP
T4 sequence (Q15831 whole entry): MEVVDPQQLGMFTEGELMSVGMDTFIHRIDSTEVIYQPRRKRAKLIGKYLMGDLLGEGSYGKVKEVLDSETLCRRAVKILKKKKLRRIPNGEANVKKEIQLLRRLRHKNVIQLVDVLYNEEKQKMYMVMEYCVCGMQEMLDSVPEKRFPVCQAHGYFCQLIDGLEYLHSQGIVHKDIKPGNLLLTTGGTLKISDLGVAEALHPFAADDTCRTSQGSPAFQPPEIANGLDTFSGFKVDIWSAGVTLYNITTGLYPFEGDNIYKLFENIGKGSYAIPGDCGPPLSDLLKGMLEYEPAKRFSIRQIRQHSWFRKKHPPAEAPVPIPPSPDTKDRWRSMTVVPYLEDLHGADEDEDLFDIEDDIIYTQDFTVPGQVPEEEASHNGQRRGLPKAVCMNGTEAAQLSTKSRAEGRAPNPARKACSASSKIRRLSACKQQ
T5 sequence (P53778 whole entry): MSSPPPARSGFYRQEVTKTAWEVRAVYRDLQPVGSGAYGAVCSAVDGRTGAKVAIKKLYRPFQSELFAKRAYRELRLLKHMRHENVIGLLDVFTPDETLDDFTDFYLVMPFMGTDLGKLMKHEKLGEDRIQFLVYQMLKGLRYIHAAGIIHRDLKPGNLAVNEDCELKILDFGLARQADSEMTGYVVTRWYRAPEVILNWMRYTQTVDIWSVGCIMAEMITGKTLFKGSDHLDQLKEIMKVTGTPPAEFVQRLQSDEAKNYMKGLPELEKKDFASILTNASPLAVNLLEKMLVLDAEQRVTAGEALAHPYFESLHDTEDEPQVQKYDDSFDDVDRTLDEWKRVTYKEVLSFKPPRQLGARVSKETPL
T3 sequence (O14733 whole entry): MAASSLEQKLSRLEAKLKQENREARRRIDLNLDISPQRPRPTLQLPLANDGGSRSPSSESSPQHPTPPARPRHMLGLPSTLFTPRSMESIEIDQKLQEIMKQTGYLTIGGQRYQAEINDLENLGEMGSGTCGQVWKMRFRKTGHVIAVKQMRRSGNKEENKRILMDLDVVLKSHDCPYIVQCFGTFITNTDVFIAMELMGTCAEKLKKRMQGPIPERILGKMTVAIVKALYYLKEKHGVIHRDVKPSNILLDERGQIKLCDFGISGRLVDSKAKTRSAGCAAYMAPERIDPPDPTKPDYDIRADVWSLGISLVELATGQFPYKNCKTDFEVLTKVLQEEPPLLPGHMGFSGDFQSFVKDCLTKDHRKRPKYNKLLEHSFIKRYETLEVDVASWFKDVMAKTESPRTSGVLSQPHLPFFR
CSNK1G1, sequence (Q9HCP0 whole entry): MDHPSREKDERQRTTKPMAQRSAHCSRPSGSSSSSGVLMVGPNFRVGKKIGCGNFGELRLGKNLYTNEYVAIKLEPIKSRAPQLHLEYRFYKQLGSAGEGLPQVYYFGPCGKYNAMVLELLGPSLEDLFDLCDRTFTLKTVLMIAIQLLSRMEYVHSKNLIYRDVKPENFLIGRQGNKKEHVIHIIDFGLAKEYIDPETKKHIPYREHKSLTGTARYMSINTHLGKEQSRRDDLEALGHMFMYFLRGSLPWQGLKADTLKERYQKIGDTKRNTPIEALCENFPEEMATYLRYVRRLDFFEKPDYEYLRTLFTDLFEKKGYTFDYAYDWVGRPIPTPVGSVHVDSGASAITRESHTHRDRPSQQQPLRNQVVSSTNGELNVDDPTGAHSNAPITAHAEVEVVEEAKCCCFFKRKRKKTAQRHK

As to `O=C(/C=C/c1cnccc1-c1ccc(F)cc1)Nc1ccc(CCc2nnco2)cc1` [T-418, (2E)-3-(4-(4-fluorophenyl)pyridin-3-yl)-N-(4-(2-(1,3,4-oxadiazol-2-yl)ethyl)phenyl)acrylamide], the remaining binding at 0.3 µM worked out at 100% on EPHA4 (sheet T-418); 100% on BRSK2 (sheet T-418); 100% in [1] (sheet T-418); 44% at MKNK1 (sheet T-418); 83% in assay [2] (sheet T-418); 100% on MKK7 (sheet T-418). Besides, the remaining binding at 0.3 µM stood at 66% on FGFR3(G697C) (sheet T-418); 53% at LKB1 (sheet T-418); 100% on PDGFRB (sheet T-418); 86% at p38-gamma (sheet T-418); 51% at PIK3CA(I800L) (sheet T-418); 100% on PAK7 (sheet T-418). In addition, the remaining binding at 0.3 µM on PRKCE (sheet T-418) amounted to 39%; at EPHB6 (sheet T-418) it was 93%; on NEK5 (sheet T-418), 100%; on CSNK1G1 (sheet T-418) it was 97%; at RIPK4 (sheet T-418), 100%; at HIPK4 (sheet T-418) it was 84%. Moreover, the remaining binding at 0.3 µM was found to be 100% at BRAF (sheet T-418), 97% in assay [3] (sheet T-418) and 89% at ERBB4 (sheet T-418).

Take `Cc1ncccc1Oc1sc(C(N)=O)c2c1-c1c(cnn1C)CC2` [T-474, 1-methyl-8-((2-methylpyridin-3-yl)oxy)-4,5-dihydro-1H-thieno[3,4-g]indazole-6-carboxamide]: the remaining binding at 0.3 µM was 100% on EPHA4; 87% on BRSK2; 100% in assay [1]; 50% on MKNK1; 83% in [2]; 100% at MKK7. For the same compound, the remaining binding at 0.3 µM on FGFR3(G697C) worked out at 59%; at LKB1, 67%; at PDGFRB, 100%; on p38-gamma, 100%; on PIK3CA(I800L) it was 77%; at PAK7, 100%. Further, the remaining binding at 0.3 µM on PRKCE is 35%; on EPHB6, 86%; at NEK5 it was 100%; on CSNK1G1 it was 79%; on RIPK4 it was 100%; on HIPK4 it was 68%. Besides, the remaining binding at 0.3 µM (on BRAF; in assay [3]; on ERBB4) was 100% throughout.

The values are drawn from PMC5862592, “CDK8/19 inhibition induces premature G1/S transition and ATR-dependent cell death in prostate cancer cells” (Oncotarget, 2018).
